Measured values reported in publication PMC4839570, “Novel Anthra[1,2-c][1,2,5]Thiadiazole-6,11-Diones as Promising Anticancer Lead Compounds: Biological Evaluation, Characterization & Molecular Targets Determination” (PLoS ONE, 2016).
Where two headings read alike, the source gives them in different places.

Experiments:
CCRF-CEM = test: NCI-60 cytotoxicity screen; format: cell-based
A549/ATCC = test: NCI-60 cytotoxicity screen; format: cell-based
HOP-62 = test: NCI-60 cytotoxicity screen; format: cell-based
NCI-H23 = test: NCI-60 cytotoxicity screen; format: cell-based
HCT-116 = test: NCI-60 cytotoxicity screen; format: cell-based
HCT-15 = test: NCI-60 cytotoxicity screen; format: cell-based
SW-620 = test: NCI-60 cytotoxicity screen; format: cell-based
SF-295 = test: NCI-60 cytotoxicity screen; format: cell-based
MALME-3M = test: NCI-60 cytotoxicity screen; format: cell-based
MDA-MB-435 = test: NCI-60 cytotoxicity screen; format: cell-based
UACC-257 = test: NCI-60 cytotoxicity screen; format: cell-based
SK-OV-3 = test: NCI-60 cytotoxicity screen; format: cell-based
A498 = test: NCI-60 cytotoxicity screen; format: cell-based
BT-549 = test: NCI-60 cytotoxicity screen; format: cell-based
T-47D = test: NCI-60 cytotoxicity screen; format: cell-based
SNB-75 = test: JFCR-39 cytotoxicity screen; format: cell-based
HCC2998 = test: JFCR-39 cytotoxicity screen; format: cell-based
NCI-H226 = test: JFCR-39 cytotoxicity screen; format: cell-based
NCI-H460 = test: JFCR-39 cytotoxicity screen; format: cell-based
LOX-IMVI = test: JFCR-39 cytotoxicity screen; format: cell-based
ACHN = test: JFCR-39 cytotoxicity screen; format: cell-based
ST-4 = test: JFCR-39 cytotoxicity screen; format: cell-based
MKN7 = test: JFCR-39 cytotoxicity screen; format: cell-based
MKN45 = test: JFCR-39 cytotoxicity screen; format: cell-based
PC-3 = test: JFCR-39 cytotoxicity screen; format: cell-based
[1] = test system: NF-κB p65 subunit translocation in OVCAR-3 cells; test: NF-κB inhibition by immunocytochemical fluorescent staining; format: cell-based, human; conditions: 5 μM
Procedure: Inhibition of NF-κB was detected according to Ataie-Kachoie et al.. Briefly, each group of tested cells were seeded on coverslips treated with HCl and ethanol, and autoclaved prior to use. Immunostaining of the p65 subunit of NF-κB was done by permeabilizing the cells with Triton […], then by treating the cells with anti-NF-κB p65 rabbit monoclonal primary antibody [E379] Abcam # ab32536, followed by Alexa Fluor® 488 Donkey anti-rabbit IgG secondary antibody Biolegend # 406416. Nuclei of cells were stained with 4',6-diamidino-2-phenylindole (DAPI). Images were acquired using fluorescence microscope. Tested cells were divided into five groups which are no treatment control, no primary antibody control, PDTC (50 μM) treated control, NSC745885 (5 μM) and NSC757963 (5 μM) treated controls.

[2] = test system: normal cardiac myoblast H9c2 cells; conditions: rat
Procedure: Briefly, 96 well microtiter plates were inoculated with the specified human cancer cell lines in RPMI 1640 medium containing 5% fetal bovine serum and 2 mM L-glutamine at the specified plating densities. The microtiter plates were incubated at 37°C, 5% CO2, and 100% relative humidity for 24 h. The test compounds were solubilized in DMSO at 400-fold the desired final maximum test concentration, diluted with complete medium containing gentamicin and added to the wells of the microtiter plates to achieve the final desired compound concentration, then incubated for an additional 48 h at the same incubation conditions. The media were removed, the cells were fixed then stained with sulforhodamine B and the unbound dye was removed by washing with acetic acid. The bound dye was resolubilized with trizma base and the absorbance at 515 nm was measured. Cells were stained with the WST-1 cell proliferation reagent instead of sulforhodamine B in some experiments and absorbance were measured at 440 nm. The three dose response parameters GI50, TGI and LC50 were calculated for each experimental compound as follows [48]: For values where Ti ≥ Tz the formula is [ (Ti-Tz) / (C-Tz)] x 100 For values where Ti < Tz the formula is [ (Ti-Tz) / Tz] x 100 Where Ti is the absorbance of the solubilized Sulforhodamine B (SRB) (representing the number of cells) of the five different concentrations of the compound used in the test, Tz is the absorbance of the SRB at time zero, and C is the absorbance of the SRB of the control growth.

MDA-MB-468 = test: NCI-60 cytotoxicity screen
[3] = Homo sapiens, Fig 7, read-out: mean log10 of the GI50 values (converted)
[4] = Homo sapiens, five-dose, read-out: GI50
[5] = Homo sapiens, five-dose, read-out: LC50 (the source's name)
[6] = Homo sapiens, read-out: LC50 (the source's name)

Question: With O=C1c2ccccc2C(=O)c2c1cc(Cl)c1nsnc21 [NSC757963] as the compound, how does the GI50 (CCRF-CEM; [3]) read?
Answer: 0.389 µM

Question: What about the GI50 (CCRF-CEM; [4]) of the same compound?
Answer: 0.33 µM

Question: What about the CC50 (CCRF-CEM; [5]) of the same compound?
Answer: > 100 µM

Question: What about the TGI (CCRF-CEM; five-dose) of the same compound?
Answer: 2.37 µM

Question: What about the GI50 (A549/ATCC; [3]) of the same compound?
Answer: 91.2 µM

Question: What about the GI50 (A549/ATCC; [4]) of the same compound?
Answer: > 100 µM

Question: What about the CC50 (A549/ATCC; [5]) of the same compound?
Answer: > 100 µM

Question: And the TGI (A549/ATCC; five-dose)?
Answer: >100 µM

Question: What about the GI50 (HOP-62; [3]) of the same compound?
Answer: 3.89 µM

Question: What about the GI50 (HOP-62; [4]) of the same compound?
Answer: 4.95 µM

Question: What about the CC50 (HOP-62; [5]) of the same compound?
Answer: 43.3 µM

Question: What about the TGI (HOP-62; five-dose) of the same compound?
Answer: 17.3 µM

Question: And the GI50 (NCI-H23; [3])?
Answer: 3.63 µM

Question: And the GI50 (NCI-H23; [4])?
Answer: 3.62 µM

Question: What about the CC50 (NCI-H23; [5]) of the same compound?
Answer: 74.6 µM

Question: And the TGI (NCI-H23; five-dose)?
Answer: 17.2 µM

Question: What about the GI50 (HCT-116; [3]) of the same compound?
Answer: 2.45 µM

Question: What about the GI50 (HCT-116; [4]) of the same compound?
Answer: 3.45 µM

Question: What about the CC50 (HCT-116; [5]) of the same compound?
Answer: 35.3 µM

Question: And the TGI (HCT-116; five-dose)?
Answer: 11.8 µM

Question: What about the GI50 (HCT-15; [3]) of the same compound?
Answer: 6.61 µM

Question: And the GI50 (HCT-15; [4])?
Answer: 10.2 µM

Question: And the CC50 (HCT-15; [5])?
Answer: 55.9 µM

Question: And the TGI (HCT-15; five-dose)?
Answer: 23.8 µM

Question: What about the GI50 (SW-620; [3]) of the same compound?
Answer: 2.51 µM

Question: What about the GI50 (SW-620; [4]) of the same compound?
Answer: 2.87 µM

Question: What about the CC50 (SW-620; [5]) of the same compound?
Answer: 58.7 µM

Question: And the TGI (SW-620; five-dose)?
Answer: 10.4 µM

Question: And the GI50 (SF-295; [3])?
Answer: 17.4 µM

Question: And the GI50 (SF-295; [4])?
Answer: 16.6 µM

Question: What about the CC50 (SF-295; [5]) of the same compound?
Answer: 62.9 µM

Question: And the TGI (SF-295; five-dose)?
Answer: 32.3 µM

Question: And the GI50 (MALME-3M; [3])?
Answer: 12.6 µM

Question: What about the GI50 (MALME-3M; [4]) of the same compound?
Answer: 15.9 µM

Question: What about the CC50 (MALME-3M; [5]) of the same compound?
Answer: 59.1 µM

Question: What about the TGI (MALME-3M; five-dose) of the same compound?
Answer: 30.7 µM

Question: What about the GI50 (MDA-MB-435; [3]) of the same compound?
Answer: 1.95 µM

Question: What about the GI50 (MDA-MB-435; [4]) of the same compound?
Answer: 1.99 µM

Question: And the CC50 (MDA-MB-435; [5])?
Answer: 7.49 µM

Question: What about the TGI (MDA-MB-435; five-dose) of the same compound?
Answer: 3.86 µM

Question: And the GI50 (UACC-257; [3])?
Answer: 7.76 µM

Question: What about the GI50 (UACC-257; [4]) of the same compound?
Answer: 14.5 µM

Question: What about the CC50 (UACC-257; [5]) of the same compound?
Answer: 53.5 µM

Question: And the TGI (UACC-257; five-dose)?
Answer: 27.8 µM

Question: What about the GI50 (SK-OV-3; [3]) of the same compound?
Answer: 13.2 µM

Question: And the GI50 (SK-OV-3; [4])?
Answer: 17.8 µM

Question: And the CC50 (SK-OV-3; [5])?
Answer: 58 µM

Question: What about the TGI (SK-OV-3; five-dose) of the same compound?
Answer: 32.1 µM

Question: And the GI50 (A498; [3])?
Answer: 85.1 µM

Question: And the GI50 (A498; [4])?
Answer: 72.8 µM

Question: And the CC50 (A498; [5])?
Answer: > 100 µM

Question: What about the TGI (A498; five-dose) of the same compound?
Answer: >100 µM

Question: And the GI50 (BT-549; [3])?
Answer: 15.8 µM

Question: What about the GI50 (BT-549; [4]) of the same compound?
Answer: 18.1 µM

Question: And the CC50 (BT-549; [5])?
Answer: 58.9 µM

Question: And the TGI (BT-549; five-dose)?
Answer: 32.7 µM

Question: And the GI50 (T-47D; Homo sapiens, T47D, Fig 7, read-out: mean log10 of the GI50 values (converted))?
Answer: 0.912 µM

Question: And the GI50 (T-47D; Homo sapiens, T47D, five-dose, read-out: GI50)?
Answer: 1.97 µM

Question: And the CC50 (T-47D; Homo sapiens, T47D, five-dose, read-out: LC50 (the source's name))?
Answer: > 100 µM

Question: And the TGI (T-47D; five-dose)?
Answer: 4.56 µM

Question: And the TGI (SNB-75)?
Answer: 3.8 µM

Question: What about the GI50 (SNB-75; Homo sapiens) of the same compound?
Answer: 2.1 µM

Question: And the CC50 (SNB-75; [6])?
Answer: 6.8 µM

Question: What about the TGI (HCC2998) of the same compound?
Answer: 3.5 µM

Question: What about the GI50 (HCC2998; Homo sapiens, HCC 2998) of the same compound?
Answer: 1.9 µM

Question: What about the CC50 (HCC2998; Homo sapiens, HCC 2998, read-out: LC50 (the source's name)) of the same compound?
Answer: 6.4 µM

Question: And the TGI (NCI-H226)?
Answer: 17.0 µM

Question: And the GI50 (NCI-H226; Homo sapiens)?
Answer: 4.2 µM

Question: And the CC50 (NCI-H226; [6])?
Answer: 51 µM

Question: What about the TGI (NCI-H460) of the same compound?
Answer: 26.0 µM

Question: What about the GI50 (NCI-H460; Homo sapiens) of the same compound?
Answer: 10 µM

Question: What about the CC50 (NCI-H460; [6]) of the same compound?
Answer: 64 µM

Question: And the TGI (LOX-IMVI)?
Answer: 4.2 µM

Question: And the GI50 (LOX-IMVI; Homo sapiens)?
Answer: 1.9 µM

Question: What about the CC50 (LOX-IMVI; [6]) of the same compound?
Answer: 9.3 µM

Question: And the TGI (ACHN)?
Answer: 3.4 µM

Question: What about the GI50 (ACHN; Homo sapiens) of the same compound?
Answer: 1.8 µM

Question: And the CC50 (ACHN; [6])?
Answer: 6.5 µM

Question: What about the TGI (ST-4) of the same compound?
Answer: 3.9 µM

Question: And the GI50 (ST-4; Homo sapiens)?
Answer: 2 µM

Question: And the CC50 (ST-4; [6])?
Answer: 7.4 µM

Question: And the TGI (MKN7)?
Answer: 3.6 µM

Question: And the GI50 (MKN7; Homo sapiens, MKN-7)?
Answer: 1.7 µM

Question: What about the CC50 (MKN7; Homo sapiens, MKN-7, read-out: LC50 (the source's name)) of the same compound?
Answer: 7.4 µM

Question: What about the TGI (MKN45) of the same compound?
Answer: 5.1 µM

Question: And the GI50 (MKN45; Homo sapiens, MKN-45)?
Answer: 2 µM

Question: What about the CC50 (MKN45; Homo sapiens, MKN-45, read-out: LC50 (the source's name)) of the same compound?
Answer: 17 µM

Question: What about the TGI (PC-3) of the same compound?
Answer: 3.2 µM

Question: What about the GI50 (PC-3; Homo sapiens) of the same compound?
Answer: 1.6 µM

Question: What about the CC50 (PC-3; [6]) of the same compound?
Answer: 6.5 µM

Question: And the “nuclear translocation of the NF-κB p65 subunit” value [1]?
Answer: significantly capable of preventing the nuclear translocation of the NF-κB p65 subunit

Question: And the “cytotoxicity towards normal cardiac myoblast H9c2 cells” value [2]?
Answer: significantly less cytotoxic effects on H9c2 cells at higher doses than doxorubicin

Question: What about the GI50 (MDA-MB-468; Homo sapiens, MDA-MB-468) of the same compound?
Answer: 1.38 µM

Question: What about the CC50 (MDA-MB-468; Homo sapiens, MDA-MB-468, read-out: LC50) of the same compound?
Answer: 6.25 µM

Question: What about the inhibition at 10 µM (MDA-MB-468; Homo sapiens, MDA-MB-468, read-out: growth inhibition) of the same compound?
Answer: 88.3%

Question: And the GI50 (MDA-MB-468; Homo sapiens, MDA-MB-468, read-out: mean log10 of the GI50 values (converted))?
Answer: 0.631 µM

Question: And the TGI (MDA-MB-468; MDA-MB-468, five-dose)?
Answer: 2.93 µM
